The text below walks through data of patent US10704076B2, “Multi-tiered high through-put screen for compounds effective against bacterial biofilm and compounds effective for inhibiting and eradicating bacterial biofilm” (University of Cincinnati, priority 2013, dated 2020).

≈ marks a conversion by molar mass, not a printed value.

Format in all cases: cell-based, Acinetobacter baumannii
Assay [1] concerns A. baumannii. The experiment in a line: MIC determination (CLSI, Mueller Hinton broth), planktonic cultures. Conditions: MH, Aerobic; for MIC: Acinetobacter baumannii, read-out: Minimum Inhibition Concentration. As for the experimental part:
A standard protocol for determining the MIC of a specific compound as outlined by the Clinical and Laboratory Standards Institute (CLSI) was used, based on growth of the selected bacteria in Mueller Hinton (MH) broth with subsequent 2-fold dilutions of compounds of interest. Following the CLSI protocols, the MIC of each broad spectrum “hit” compound was performed in all 3 bacterial species in both aerobic and anaerobic conditions. All bacteria were grown in MH broth for 18 hrs at 37° C. The cells were then diluted 100-fold into MH broth containing compounds at concentrations ranging from 0.40-50 μM in the presence of either KNO3 or glucose to allow bacterial growth under anaerobic condition. After 24 hrs of incubation, cell growth was measured at OD600 using a SpectraMax 190 Absorbance Microplate Reader.
The HTS and CLSM assays identified and confirmed compounds that can inhibit biofilms formation in aerobic growth conditions. However, P. aeruginosa and S. epidermidis are capable of growth under anaerobic as well as aerobic conditions. […] The Minimal Inhibitory Concentrations (MIC) of the four broad agent hit compounds under both aerobic and anaerobic conditions of planktonic P. aeruginosa and S. epidermidis cultures were determined to evaluate compound efficacy in different growth conditions. The MICs for A. baumannii were determined only in aerobic conditions. To examine growth in aerobic conditions, bacteria were grown in either Mueller Hinton (MH) media only, MH media in the presence of 1% KNO3, or MH in the presence of 1% glucose. For MIC determinations under anaerobic conditions, growth was examined in MH media with 1% KNO3 or with 1% glucose.

A further assay relates to A. baumannii biofilm. The assay is described as follows: HTS live biofilm assay (resazurin metabolic activity). Conditions: for AC50: Acinetobacter baumannii, 10 point dose-response 0.1-50 μM. The text has this:
(§1) Each HTS tier consisted of: (i) primary screening, (ii) confirmation screening and (iii) dose-response curve screening. Each tier of HTS included three distinct biological process assays. The first assay was an optical density measurement of bacteria growth in the presence of each compound reported as a total bacteria growth. In the second assay, resazurin solution was used as an indicator of metabolic activity to measure the live bacteria in the biofilms, reported as live biofilm. The final assay was crystal violet staining, which indicated the amount of biofilm formation and the effect of each compound on this process, reported as total biofilm formation.
(§2) Briefly, stationary phase bacteria grown in L-broth were diluted 1:200 into fresh L-broth and 50 μM of each test compound. After 20-24 hours, the optical density (OD560) of each suspension was measured using Zeiss Plate::Vision with a 560 BP filter (560 nm, 2.5% light intensity, 1 mm focus to bottom of plate, and exposure time of 100 ms). To measure bacterial viability in the biofilm, 50 μl of a 5 mg/ml resazurin solution in L-broth was added to each well after washing 3 times with 50 μl of PBS. The plates were then incubated at 37° C. for 30 or 180 min for A. baumannii and P. aeruginosa biofilms, respectively. Fluorescence was measured using Zeiss Plate::Vision at excitation and emission wavelengths of 535 and 580 nm, 100 ms exposure time, 2.5% intensity and a 2 mm focus to the bottom of the biofilms. To assess biofilm formation, plates were washed 3 times with PBS and then 50 μl of 0.01% of crystal violet was added to each well to assess bacterial biofilm formation as described in a similar borosilicate tube assay by O'Toole and Kolter. After incubation at room temperature for 30 min and removal of the crystal violet solution by washing with PBS, 95% ethanol was added to solubilize the crystal violet followed by incubation for 20 min at room temperature. Finally, the optical density of each plate was determined using measured by Zeiss Plate::Vision using the same settings used to measure total bacterial growth. These 3 steps were used in each of the three tiers for the HTS process: (i) single point primary screening at 10 μM, (ii) triplicate confirmation of hits from (i) at 10 μM and (iii) determination of AC50 values in 10 point dose-response at a concentration range of 0.1-50 μM) in hits from (ii). The AC50 represents the concentration of compound that inhibits 50% of bacterial growth, bacterial viability, or biofilm formation. Genedata Screener® Assay Analyzer Software (Ver. 9.0.0 Standard) was used to analyze data from all assay tiers. Compounds with an AC50 of less than 20 μM in one of the biological assays from the dose response screen were subject to additional investigation.
(In general: Alamar Blue is a resazurin reagent that responds to reducing activity.)

Assay [2] deals with A. baumannii. The assay is described as follows: HTS total bacterial growth assay (optical density OD560). Conditions: for AC50: Acinetobacter baumannii, 10 point dose-response 0.1-50 μM, NS* = no sigmoid curve observed, read-out: Total Bacteria Growth AC50.
Source text: as §1, §2

On to `O=C(O)c1cn(C2CC2)c2c(F)c(N3CC(O)C3)c(F)cc2c1=O` [Compound 8, 1-cyclopropyl-6,8-difluoro-7-(3-hydroxyazetidin-1-yl)-4-oxoquinoline-3-carboxylic acid], for which the MIC in the assay on A. baumannii [1] is ~1 µM (≈ 0.336 µg/mL). Also, the AC50 in the assay on A. baumannii biofilm stood at 2.33 µM; in the assay with A. baumannii [2] it was 3.44 µM. Also, in the assay with A. baumannii biofilm (Y / —), the “HTS assay results: Live Bacteria” value is “—* (AC50 higher than 20 μM)”. The “HTS assay results: Total Bacteria growth” value in the assay on A. baumannii [2] (Y / —) is recorded as “—* (AC50 higher than 20 μM)”.
Regarding `O=C(O)c1cn(C2CC2)c2c(F)c(-c3ccncc3)c(F)cc2c1=O` [Compound 11, 7-(4-pyridyl)-1-cyclopropyl-6,8-difluoro-4-oxoquinoline-3-carboxylic acid], in the assay with A. baumannii [1], the MIC lay within 5 to 6 µM (≈ 1.71 to 2.05 µg/mL) and the “Minimum Inhibition Concentration” value worked out at 5.12 ± 1.04 µM. The compound also showed a half-maximal activity concentration (AC50) in the assay on A. baumannii biofilm of 0.61 µM. Moreover, the concentration at half-maximal activity (AC50) in the assay with A. baumannii [2] was 0.66 µM.
On the same counts, the results for `Cn1sc(Cl)c(C#N)c1=O` [Compound 3, 5-chloro-2-methyl-3-oxo-1,2-thiazole-4-carbonitrile] are 5 to 6 µM (≈ 0.873 to 1.05 µg/mL), 6.25 ± 2.21 µM, 4.04 µM and 2.93 µM.
For `NC(=S)N1CCN(c2cc3c(cc2F)c(=O)c(C(=O)O)cn3C2CC2)CC1` [Compound 7, 7-(4-carbamothioylpiperazin-1-yl)-1-cyclopropyl-6-fluoro-4-oxoquinoline-3-carboxylic acid], in the assay on A. baumannii [1], the MIC was 16 µM (≈ 6.25 µg/mL) and the “Minimum Inhibition Concentration” value is 16.67 ± 4.17 µM. Moreover, the activity with A. baumannii biofilm was half-maximal at 8.45 µM (AC50). The concentration at half-maximal activity (AC50) in the assay with A. baumannii [2] amounted to 12.1 µM.

The term AC50 denotes the midpoint of the concentration-response curve, whichever way the signal moves.
